From patent publication US6410575B1, “Viral treatment” (The Procter & Gamble Company, priority 1999, dated 2002)
Values after ≈ are worked out from the molar mass of the structure shown. Values joined by “and” are separate entries in the source; they are usually repeats but may differ in a detail not shown here. Equal values may be shown once. Read-outs that look alike come from different tables or passages of the source.

How the values were obtained:
[1] = tested on: HEPG2 2.2.15; assay: Toxicity values in the hepatitis B test; type: cell-based; parameters: Toxicity Values, sample / Toxicity Values, mean: unit not given here
[2] = tested on: hepatitis B; assay: In vitro virus production test of hepatitis B, HEPG2 2.2.15; type: cell-based
[3] = tested on: vero cells; assay: Herpes simplex testing, toxicity (TC50); parameters: unit not given beside the values
[4] = tested on: Curvularia lunata; assay: Anti-fungal activity, MIC (NCCLS M-27A based); type: cell-based; settings: growth inhibited or reduced at least 90%
Method: (§1) It was active against Cryptococcus neoformans and Curvularia lunata. The cidal activity for the C. neoformans is high enough that it is clear […] against this yeast. This test was conducted using a method based upon NCCLS reference method M-27A published in 1997. Solvent, medium and growth controls were set-up with the tests. Once these were read to validate the test performance, the QC fungi were read to insure they had expected results. These steps validated the test system. DMSO was used as a drug-chemical solvent. […] The 90% cut-off is necessary for azoles, which are static and not cidal. The […] or cidal level, was determined by sub-culturing a sample from each tube showing no growth.

[5] = tested on: Cryptococcus neoformans; assay: Anti-fungal activity, MFC (NCCLS M-27A based); type: cell-based; settings: cidal level
Method: as §1

[6] = Toxicity values in the HHV8 test; type: cell-based; settings: human, TPA-induced BCBL-1 cells; read-out: TC50 (the source's name)
Method: (§2) Toxicity quantification involves the XTT-based evaluation. Assays were designed to characterize the long term effects of the compounds on virus production and to characterize the longer term effects of the compounds on virus production from chronically HIV infected cells.
(§3) The DNA copy number and the toxicity value were measured and compared with Cidofovir. Kaposi's sarcoma (KS) is a cancer that is often found in people with weak immune systems, such as those taking immunosuppressants or those with AIDS. The exact nature of the disease is uncertain, but it is almost always found in association with HHV8.

[7] = tested on: TPA-induced BCBL-1 cells; assay: Toxicity values in the HHV8 test; type: cell-based
Method: as §2, §3

[8] = tested on: Human Herpes Virus 8 (HHV8); assay: Kaposi's sarcoma / HHV8 DNA copy number in TPA-induced BCBL-1 cells; type: cell-based; settings: HHV8, BCBL-1 cells
Method: as §3

[9] = tested on: BVDV; assay: BVDV testing in vitro; type: cell-based, bovine diarrhea virus; settings: first test
From the text: DMSO had no effect, as expected.
BVDV is a bovine diarrhea virus and is a well known surrogate virus for hepatitis C which cannot be cultured in vitro.

Nc1ccn([C@@H]2CS[C@H](CO)O2)c(=O)n1 [3TC, lamivudine, reference compound]
% cell control ([1]; 0.0032 μg/ml): 90.8%
Toxicity Values, mean ([1]; 0.0032 μg/ml): 1.137
Toxicity Values, sample ([1]; 0.0032 μg/ml): 1.173 and 1.230 and 1.009
% cell control ([1]; 0.01 μg/ml): 84.6%
Toxicity Values, mean ([1]; 0.01 μg/ml): 1.060
Toxicity Values, sample ([1]; 0.01 μg/ml): 1.081 and 1.099 and 1.001
% cell control ([1]; 0.032 μg/ml): 94.3%
Toxicity Values, mean ([1]; 0.032 μg/ml): 1.181
Toxicity Values, sample ([1]; 0.032 μg/ml): 1.153 and 1.316 and 1.074
Toxicity Values, mean ([1]; 0.1 μg/ml): 1.190
% cell control ([1]; 0.32 μg/ml): 93.6%
Toxicity Values, mean ([1]; 0.32 μg/ml): 1.172
Toxicity Values, sample ([1]; 0.32 μg/ml): 1.207 and 1.227 and 1.082
% cell control ([1]; 1 μg/ml): 106.5%
Toxicity Values, mean ([1]; 1 μg/ml): 1.334
Toxicity Values, sample ([1]; 1 μg/ml): 1.256 and 1.322 and 1.423
TC50 ([1]; HEPG2 2.2.15): > 1 µg/mL
TC50 ([1]; HEPG2 2.2.15, replicate experiment): > 1 µg/mL
DNA Copy Number (per 3 μl), sample ([2]; 0.1 μg/ml): 73.0 per 3 μl
% virus control ([2]; 1 μg/ml): 1.4%
DNA Copy Number (per 3 μl), mean ([2]; 1 μg/ml): 4.0 per 3 μl
IC50 ([2]; Hepatitis B virus, HepG2 2.2.15): 0.021 µg/mL (≈ 0.0916 µM)
IC50 ([2]; hepatitis B, HEPG2 2.2.15): 0.089 µg/mL (≈ 0.388 µM)

Nc1nc2c(ncn2COCCO)c(=O)[nH]1 [Acyclovir, reference compound]
TC50 [3]: > 1

C[C@@H]1[C@H](O)[C@@H](C)/C=C/C=C/C=C/C=C/C=C/C=C/C=C/[C@H](O[C@@H]2O[C@H](C)[C@@H](O)[C@H](N)[C@@H]2O)C[C@@H]2O[C@](O)(C[C@@H](O)C[C@@H](O)[C@H](O)CC[C@@H](O)C[C@@H](O)CC(=O)O[C@H]1C)C[C@H](O)[C@H]2C(=O)O [AmB, amphotericin B]
MIC [4]: 0.06 µg/mL (≈ 0.0649 µM)
MFC [5]: 0.5 µg/mL (≈ 0.541 µM)

Nc1ccn(C[C@@H](CO)OCP(=O)(O)O)c(=O)n1 [Cidofovir, reference compound]
CC50 [6]: 21.1 µM
% cell control ([7]; 0.08 μM): 83.9%
% cell control ([7]; 0.25 μM): 90.1%
% cell control ([7]; 0.8 μM): 82.8%
% cell control ([7]; 2.5 μM): 75.0%
% cell control ([7]; 8 μM): 69.3%
% cell control ([7]; 25 μM): 4403%
TI [8]: TI = 19.2

CCC(C)n1ncn(-c2ccc(N3CCN(c4ccc(OCC5COC(Cn6cncn6)(c6ccc(Cl)cc6Cl)O5)cc4)CC3)cc2)c1=O (stereo not shown) [Itra, Itraconazole]
MFC ([5]; read-out: MFC): 32 µg/mL (≈ 45.3 µM)

COC(=O)Nc1nc2ccccc2[nH]1 [Methyl, methyl 1,2-benzmimidazole carbamate or benomyl]
MIC [4]: 0.03 µg/mL (≈ 0.157 µM)
MFC [5]: 32 µg/mL (≈ 167 µM)

NC(=O)c1ncn([C@@H]2O[C@H](CO)[C@@H](O)[C@H]2O)n1 [Ribavirin, reference compound]
Antiviral Index (AI), TC50/IC50 [9]: 2.25

c1ccc2[nH]c(-c3cscn3)nc2c1 [Thia, thiabendazole]
MIC ([4]; read-out: MIC): 0.03 µg/mL (≈ 0.149 µM)
MFC ([5]; read-out: MFC): 32 µg/mL (≈ 159 µM)
